Measurements reported in patent US20070160725A1, “Use of extracts and compounds of allium-genus plants as preservatives in the food and agri-food industries” (MOUSALA, S., L., priority 2004, published 2007).
“And” between values parts separate entries of the source, which are not always exact repeats. Equal entries are not always repeated.

Tests used:
[1] = test system: Salmonella typhimurium, ATCC 13311; experiment: agar diffusion, inhibition halo; type: cell-based
Method: (§1) In order to evaluate the antimicrobial activity the agar diffusion technique with cellulose discs of 6 mm in diameter impregnated with the different active ingredient testing doses was used.
(§2) Antibacterial capacity was assessed against suspensions of 10^6 cells/ml, prepared from pure young cultures of each one of the strains to be tested. The culture medium used was Müller-Hinton medium (Merck).
(§3) After incubating the culture dishes inoculated with the different organisms at the corresponding temperatures, the microbial inhibition halos that appeared were measured, and said measurement includes the 6 mm diameter of the cellulose discs.

[2] = test system: Micrococcus luteus, isolated from a spiced sausage; experiment: agar diffusion, inhibition halo; type: cell-based
Method: as §1, §2, §3

[3] = test system: Escherichia coli, CECT 515; experiment: agar diffusion, inhibition halo; type: cell-based
Method: as §1, §2, §3

[4] = test system: Staphylococcus aureus, isolated from hamburgers; experiment: agar diffusion, inhibition halo; type: cell-based
Method: as §1, §2, §3

[5] = test system: Bacillus cereus, CECT 1178; experiment: agar diffusion, inhibition halo; type: cell-based
Method: as §1, §2, §3

[6] = test system: Pseudomonas aeruginosa, ATCC 13925; experiment: agar diffusion, inhibition halo; type: cell-based
Method: as §1, §2, §3

[7] = test system: Streptococcus faecalis, isolated from a spiced sausage; experiment: agar diffusion, inhibition halo; type: cell-based
Method: as §1, §2, §3

[8] = test system: Proteus vulgaris, ATCC 13315; experiment: agar diffusion, inhibition halo; type: cell-based
Method: as §1, §2, §3

[9] = test system: Bacillus megaterium, ATCC 33085; experiment: agar diffusion, inhibition halo; type: cell-based
Method: as §1, §2, §3

[10] = test system: Trichoderma viride, CECT 2460; experiment: agar diffusion, inhibition halo; type: cell-based
Method: as §1
(§4) Antifungal capacity was assessed against suspensions of […], harvested from pure cultures of the selected molds and against suspensions of 10^7 cells/ml for the case of yeasts. The culture medium used was the 2% Sabouraud-glucose medium (Merck).
as §3

[11] = test system: Geotrichum candidum CECT 1902; experiment: agar diffusion, inhibition halo; type: cell-based; conditions: in polyvinyl acetate emulsion, 2000 ppm
Method: as §1, §4, §3

[12] = test system: Pullularia pullulans, CECT 2657; experiment: agar diffusion, inhibition halo; type: cell-based
Method: as §1, §4, §3

[13] = test system: Mucor plumbeus, isolated from cheese; experiment: agar diffusion, inhibition halo; type: cell-based; conditions: in polyvinyl acetate emulsion, 2000 ppm
Method: as §1, §4, §3

[14] = test system: Penicillium sp, isolated from cheese; experiment: agar diffusion, inhibition halo; type: cell-based
Method: as §1, §4, §3

[15] = test system: Aspergillus niger, CECT 2700; experiment: agar diffusion, inhibition halo; type: cell-based
Method: as §1, §4, §3

[16] = test system: Aspergillus terreus, isolated from the environment of the cheese maturation chamber; experiment: agar diffusion, inhibition halo; type: cell-based
Method: as §1, §4, §3

[17] = test system: Penicillium funiculosum, CECT 2702; experiment: agar diffusion, inhibition halo; type: cell-based
Method: as §1, §4, §3

[18] = test system: Saccharomyces cerevisiae, CECT 1324; experiment: agar diffusion, inhibition halo; type: cell-based
Method: as §1, §4, §3

[19] = test system: Candida albicans, ATCC 10231; experiment: agar diffusion, inhibition halo; type: cell-based
Method: as §1, §4, §3

[20] = test system: mold on the surface of the cheese; experiment: preservative activity on surface of cheese (PVA emulsion coating); conditions: fresh cheese, PVA emulsion with 2000 ppm pimaricin with 12000 ppm of potassium sorbate, diluted 1:1 with water, room temperature
Method: (§5) These tests were carried out according to the instructions for applying said commercial preparations on foods by immersion, such as spiced sausage, chorizo, cheese, etc. (see application examples), with different antimicrobial product doses.
The amounts of PTS and pimaricin with potassium sorbate (12000 ppm) as shown in the corresponding table are added to emulsions of 1 kg of PVA. Said preparations are diluted 1:1 with water and pieces of fresh cheese without surface treatment are submerged therein. Once the pieces are dry, each one is introduced into a sealed recipient and is left at room temperature. They are monitored, and the occurrence of mold on their surface is observed on the days herein set forth:
Amounts of complex in α-cyclodextrin (sample 2) and β-cyclodextrin (sample 3) are added to emulsions of 1 kg of PVA such that the amount of active ingredient, PTS, is 5000 ppm. On the other hand a sample (no. 1) is prepared with pimaricin (2000 ppm) and potassium sorbate (12000 ppm). The same process is followed as in the previous case upon applying the products and the samples are monitored, the occurrence of mold on the surface of the cheese being observed according to the following table: […]

[21] = test system: mold; experiment: preserving activity on the surface of sausages (large intestine chorizo and spiced sausage); conditions: intestines submerged in a pimaricin solution at 500 ppm for 3 hours before stuffing
Method: as §5
Preparing sample 1: First a series of pig large intestines are submerged in a dispersion of pimaricin in water, 500 ppm, for three hours. Then two pieces are stuffed with 600 g each.
Then 4 other pieces are stuffed with 600 g each and are treated as follows: • Control sample: two pieces are left untreated. • Sample 2: Two pieces are submerged for 2 minutes in a dispersion of sucrose esters in water (10-40 g/kg of water), with a concentration of 3000 ppm of PTS.
All the pieces are subjected to drying between 24 and 26° C. and 90% relative humidity for 72 hours. Then they are hung and left to cure. The external appearance is monitored and the following results are obtained: […]

[22] = 250 ppm (second column headed 250)
[23] = in polyvinyl acetate emulsion, 2000 ppm

## C[C@@H]1C/C=C/C=C/C=C/C=C/[C@H](O[C@@H]2O[C@H](C)[C@@H](O)[C@H](N)[C@@H]2O)C[C@@H]2O[C@](O)(C[C@@H](O)C[C@H]3O[C@@H]3/C=C/C(=O)O1)C[C@H](O)[C@H]2C(=O)O [Pimaricin, pimaricin]
[1]; 62.5 ppm
  inhibition halo diameter: 0 mm
[1]; 250 ppm
  inhibition halo diameter: 0 mm
[1]; [22]
  inhibition halo diameter: 0 mm
[1]; 500 ppm
  inhibition halo diameter: 0 mm
[1]; 1000 ppm
  inhibition halo diameter: 0 mm
[2]; 100 ppm
  inhibition halo diameter: 0 mm
[2]; 1000 ppm
  inhibition halo diameter: 0 mm
[3]; 62.5 ppm
  inhibition halo diameter: 0 mm
[3]; 250 ppm
  inhibition halo diameter: 0 mm
[3]; [22]
  inhibition halo diameter: 0 mm
[3]; 500 ppm
  inhibition halo diameter: 0 mm
[3]; 1000 ppm
  inhibition halo diameter: 0 mm
[4]; 62.5 ppm
  inhibition halo diameter: 0 mm
[4]; 250 ppm
  inhibition halo diameter: 0 mm
[4]; [22]
  inhibition halo diameter: 0 mm
[4]; 500 ppm
  inhibition halo diameter: 0 mm
[4]; 1000 ppm
  inhibition halo diameter: 0 mm
[5]; 100 ppm
  inhibition halo diameter: 0 mm
[5]; 1000 ppm
  inhibition halo diameter: 0 mm
[6]; 62.5 ppm
  inhibition halo diameter: 0 mm
[6]; 250 ppm
  inhibition halo diameter: 0 mm
[6]; [22]
  inhibition halo diameter: 0 mm
[6]; 500 ppm
  inhibition halo diameter: 0 mm
[6]; 1000 ppm
  inhibition halo diameter: 0 mm
[7]; 62.5 ppm
  inhibition halo diameter: 0 mm
[7]; 250 ppm
  inhibition halo diameter: 0 mm
[7]; [22]
  inhibition halo diameter: 0 mm
[7]; 500 ppm
  inhibition halo diameter: 0 mm
[7]; 1000 ppm
  inhibition halo diameter: 0 mm
[8]; 62.5 ppm
  inhibition halo diameter: 0 mm
[8]; 250 ppm
  inhibition halo diameter: 0 mm
[8]; [22]
  inhibition halo diameter: 0 mm
[8]; 500 ppm
  inhibition halo diameter: 0 mm
[8]; 1000 ppm
  inhibition halo diameter: 0 mm
[9]; 62.5 ppm
  inhibition halo diameter: 0 mm
[9]; 250 ppm
  inhibition halo diameter: 0 mm
[9]; [22]
  inhibition halo diameter: 0 mm
[9]; 500 ppm
  inhibition halo diameter: 0 mm
[9]; 1000 ppm
  inhibition halo diameter: 0 mm
[10]; 62.5 ppm
  inhibition halo diameter: 13 mm
[10]; 250 ppm
  inhibition halo diameter: 15 mm
[10]; [22]
  inhibition halo diameter: 14 mm
[10]; 500 ppm
  inhibition halo diameter: 16 mm
[10]; 1000 ppm
  inhibition halo diameter: 18 mm
[11]
  inhibition halo diameter: 15 mm
[12]; 62.5 ppm
  inhibition halo diameter: 24 mm
[12]; 250 ppm
  inhibition halo diameter: 28 mm
[12]; [22]
  inhibition halo diameter: 28 mm
[12]; 500 ppm
  inhibition halo diameter: 30 mm
[12]; 1000 ppm
  inhibition halo diameter: 23 mm
[13]
  inhibition halo diameter: 13 mm
[14]; 100 ppm
  inhibition halo diameter: 24 mm
[14]; 1000 ppm
  inhibition halo diameter: 26 mm
[14]; [23]
  inhibition halo diameter: 18 mm
[15]; 62.5 ppm
  inhibition halo diameter: 19 mm
[15]; 250 ppm
  inhibition halo diameter: 19 mm
[15]; [22]
  inhibition halo diameter: 19 mm
[15]; 500 ppm
  inhibition halo diameter: 20 mm
[15]; 1000 ppm
  inhibition halo diameter: 20 mm
[15]; [23]
  inhibition halo diameter: 20 mm
[16]; 100 ppm
  inhibition halo diameter: 14 mm
[16]; 1000 ppm
  inhibition halo diameter: 15 mm
[17]; 62.5 ppm
  inhibition halo diameter: 10 mm
[17]; 250 ppm
  inhibition halo diameter: 11 mm
[17]; [22]
  inhibition halo diameter: 10 mm
[17]; 500 ppm
  inhibition halo diameter: 12 mm
[17]; 1000 ppm
  inhibition halo diameter: 12 mm
[18]; 100 ppm
  inhibition halo diameter: 26 mm
[18]; 1000 ppm
  inhibition halo diameter: 26 mm
[19]; 62.5 ppm
  inhibition halo diameter: 10 mm
[19]; 250 ppm
  inhibition halo diameter: 12 mm
[19]; [22]
  inhibition halo diameter: 12 mm
[19]; 500 ppm
  inhibition halo diameter: 14 mm
[19]; 1000 ppm
  inhibition halo diameter: 16 mm
[20]
  Visible occurrence of mold at: 10 to 15 days and 10 to 16 days
[21]
  Visible occurrence of mold at: 6 days
